In patent US11465989B2, “Guanidine compounds and use thereof” (IMMUNOMET THERAPEUTICS INC., priority 2014, dated 2022) one finds IC50 data, which are given here for 42 compounds.

SMILES strings stand for the structures. Structures can show the parent of a compound that is named as a salt. Where only a bound is given, the exact number is not on record here.

In the first assay the test system is SK-MEL-28 cells. The assay is described as follows: Cytotoxicity in low glucose condition (MTT). Type of assay: cell-based. The settings on record: Homo sapiens, SK-MEL-28, 0.75 mM glucose, 72 hours, read-out: SK-MEL-28 0.75 mM glucose Cell viability (IC50 ia). The source says: The inhibition of oxidative phosphorylation (OXPHOS) is not cytotoxic to cells in normal glucose condition, because it is postulated that normal cells have compensatory mechanism under energy stress conditions such as low glucose. However OXPHOS inhibitors show cytotoxic effect on cells in the glucose deprived condition (BirsoyK, 2014). The glucose deprived condition is observed in tumor microenvironment potentially due to poor angiogenesis. Therefore the OXPHOS inhibitors may show anti-cancer effect on cancer cells in low glucose condition that may depict tumor microenvironment.
The compounds of the present invention were evaluated their cytotoxicity in SK-MEL-28, melanoma with 0.75 mM glucose supplement. The cytotoxic effect is compared with the cytotoxicity caused by phenformin. The cytotoxicity in low glucose condition is correlated with inhibition of oxygen consumption in mitochondria.
SK-MEL-28 (HTB-72) is a melanoma cell line obtained from ATCC (MA) and cultured in RPMI 1640 media (Lifetechnologies, CA) with supplement of 10% FBS and antibiotic-antimycotic (Lifetechnologies, CA). RPMI 1640 (-Glucose) was used to prepare low glucose media and 0.75 mM glucose was supplied with D-(+)-glucose solution from Sigma. SK-MEL-28 cells were separated from culture plate using 0.5% trypsin-EDTA and 5,000 cells were plated in 96-well plate with low glucose media. After incubation at 37° C. for 24 hour, 5% CO2, the cells were treated with the compounds of present invention in FBS-free media for 72 hours. The cytotoxicity was measured by the MTT (AMRESCO, OH) assay. NADH-dependent cellular oxidoreductase reduces MTT to its insoluble […] with purple color. The enzyme depends on cell number or energy state of cells. 10 μl of 5 mg/ml MIT solution was added to each well of the assay plate and skip the well for blank. The plate was incubated at 37° C. and 5% CO2 for 2 hours. The MTT solution was removed from each well and 100 μl of DMSO was added. The plate was read by VICTOR X3 Multilabel Counter at the wavelength of 550 nm. In Table 2, the levels of IC50 are evaluated by the following criteria.
With `C/N=C(\NC)NC(=N)NCCc1ccc(Cl)c(Cl)c1` [Example 132, N-1-methyl-N-2-methyl-N-5-(3,4-dichloro)phenethylbiguanide hydrochloride], the IC50 is over 10 µM.
The same measure, in the same setting: next, `N=C(N)NC(=N)NCCc1ccccc1Cl` [Example 3, N-1-(2-chloro)phenethylbiguanide hydrochloride]: 5 to 10 µM; `N=C(N)NC(=N)NCCc1ccc(I)cc1` [Example 71, N-1-(4-iodo)phenethylbiguanide hydrochloride]: over 10 µM; `Cc1ccccc1CCNC(=N)N` [Example 161, 1-(2-methylphenethyl)guanide hydrochloride]: over 10 µM.
The same measure, in the same setting: next, `CONC(=N)NC(=N)NCCc1ccc(Cl)c(Cl)c1` [Example 129, N-1-methoxy-N-5-(3,4-dichloro)phenethylbiguanide hydrochloride]: over 10 µM.
The same measure, in the same setting: next, `CNC(=N)NC(=N)NCCc1ccccc1` [Example 124, N-1-methyl-N-5-phenethylbiguanide hydrochloride]: over 10 µM.

A further assay deals with A549 cells. Put plainly: Inhibition of OCR (XF Analyzer). Type of assay: cell-based. Particulars: Homo sapiens, A549, 24 h. An excerpt:
The electron transfer complex in mitochondria is composed of 5 complexes. The complex I accept electrons from NADH produced from glycolysis and TCA cycle and the electrons move to complex […] and the electron is finally transferred to O2 and water molecule is generated. During the electron transfer, proton gradient is generated and the chemical gradient is a driving source to synthesize ATP at complex V. The mitochondrial inhibition of complex I indirectly assessed by measuring the oxygen consumption rate (OCR) at complex IV. […] The solution outside of cells becomes acidic (lower pH) as lactate is transported to outside of cells. OCR and Extracellular acidification rate (ECAR) are determined by XF Analyzer (Seahorse Biosciences).
A549 cells were purchased from American Type Tissue Culture Collection ([…]) and cultured in RPMI 1640 supplied with 10% fetal bovine serum (FBS) and antibiotic-antimycotic (Lifetech, CA). A549 cells were separated with 0.5% Trypsin-EDTA and 3,000 cells were plated on 1 mg/ml poly-D-lysine (Sigma, P6407) coated XF 96 well […]. A549 cells were allowed to adhere to the wells for 24 hours under the condition of temperature, 37° C. and 5% CO2 The sensor cartridge of XF Analyzer was soaked in 200 Ad of Calibrant solution (Seahorse, MA) in a clear 96-well plate at 37° C. for 24 hours. The compounds of the present invention were diluted with RPMI 1640 without FBS, transferred to A549 cells on XF 96 well plate, and incubated further for 23 hours at 37° C. and 5% CO2. After incubation, the compound solution was exchanged with pre-warmed and pH adjusted (pH7.4) XF assay media (Seahorse) supplied with 15 mM D-glucose (Sigma), 15 mM sodium pyruvate (Lifetechnologies, CA) and 4 mM L-glutamine (Lifetechnologies, CA). The compounds of present invention were prepared in XF Assay media and added to the assay plate. The assay plate was equilibrated in XF Analyzer for 1 hour, and the reading were started by sensor cartridge. The cytotoxicity assay was followed using Cyquant (Lifetechnologies, CA) in order to calibrate the inhibition with cytotoxicity of compounds. The concentrations of the compounds were tested at […] and IC50 value was obtained from the inhibited values. That is, from OCR inhibition values at each concentration of the compound, IC50 was calculated according to Prism's dose response curve fitting.
In Table 1, the levels of OCR IC50 are evaluated by the following.
For `N=C(N)NC(=N)NCCc1ccccc1Cl` [Example 3, N-1-(2-chloro)phenethylbiguanide hydrochloride], the 50% inhibitory concentration (IC50) is under 2 µM.
On the same count and under the same terms, next, `N=C(N)NC(=N)NCCc1ccc(Cl)cc1Cl` [Example 4, N-1-(2,4-dichloro)phenethylbiguanide hydrochloride]: 2 to 5 µM; `N=C(N)NC(=N)NCCc1ccc(I)cc1` [Example 71, N-1-(4-iodo)phenethylbiguanide hydrochloride]: over 5 µM.
On the same count and under the same terms, for `C[C@H](CNC(=N)N)c1ccccc1` [Example 175, (S)-1-(2-phenylpropyl)guanide hydrochloride] the value was over 5 µM.
The same measure, in the same setting: for `Cc1ccccc1CCNC(=N)N` [Example 161, 1-(2-methylphenethyl)guanide hydrochloride] the value was 2 to 5 µM; for `N=C(N)NC(=N)NCc1cccc2ccccc12` [Example 31, hydrochloride], over 5 µM.
On to `CN(CCc1ccc(F)cc1)C(=N)N` [Example 174, 1-(4-fluorophenethyl)-1-methyl guanide hydrochloride], for which the IC50 is over 5 µM.
Take `N=C(N)NCc1ccc(Oc2ccccc2)cc1` [Example 203, 1-(4-phenoxybenzyl) guanide hydrochloride]: the IC50 fell in the range of 2 to 5 µM.
Regarding `Cc1ccc(CCNC(=N)N)cc1` [Example 138, 1-(4-methylphenethyl)guanide hydrochloride], the IC50 fell in the range of 2 to 5 µM.
`N=C(N)NCCc1ccc(Cl)c(Cl)c1` [Example 140, 1-(3,4-dichlorophenethyl)guanide hydrochloride]: the IC50 fell in the range of 2 to 5 µM.
Same read-out and setting: next, `N=C(N)NC(=N)NCCc1ccc(Br)c(Cl)c1` [Example 73, N-1-(4-bromo-3-chloro)phenethylbiguanide hydrochloride]: 2 to 5 µM.
Same read-out and setting: for `N=C(N)NC(=N)NCc1ccc2ccccc2c1` [Example 45, hydrochloride] the value was 2 to 5 µM; for `N=C(N)NC(=N)NCc1cccc(Cl)c1` [Example 41, N-1-(3-chloro)benzylbiguanide hydrochloride], over 5 µM; for `N=C(N)NCCc1cccc2c1CCCC2` [Example 192, hydrochloride], 2 to 5 µM.
In turn, `COc1cccc(CCNC(=N)NC(=N)N)c1` [Example 8, N-1-(3-methoxy)phenethylbiguanide hydrochloride] gave an IC50 of 2 to 5 µM.
The same measure, in the same setting: next, `N=C(N)NCc1ccc(Br)cc1` [Example 184, 1-(4-bromobenzyl)guanide hydrochloride]: over 5 µM; `N=C(N)NC(=N)NCCCc1ccc(C2CC2)cc1` [Example 47, N-1-1-(3-(4-cyclopropylphenyl)propyl)biguanide hydrochloride]: over 5 µM.
Still for that read-out and setting: for `COc1ccc(CCCNC(=N)N)cc1` [Example 185, 1-(3-(4-methoxyphenyl)propyl)guanide hydrochloride] the value was over 5 µM; for `CCCNC(=N)NC(=N)NCCc1ccc2c(c1)CCCC2` [Example 127, N-1-propyl-N-5-(2-(5,6,7,8-tetrahydronaphthalen-2-yl)ethyl) biguanide hydrochloride], over 5 µM; for `N=C(N)NC(=N)NCCc1ccc(CCc2ccccc2)cc1` [Example 27, N-1-(4-phenethyl)phenethylbiguanide hydrochloride], 2 to 5 µM.
Same read-out and setting: for `N=C(N)NC(=N)NCc1ccc(Oc2ccccc2)cc1` [Example 56, N-1-(4-phenoxy)benzylbiguanide hydrochloride] the value was over 5 µM; for `N=C(N)NC(=N)NCCc1ccccc1F` [Example 9, N-1-(2-fluoro)phenethylbiguanide hydrochloride], over 5 µM.
`CN(CCCc1ccccc1)C(=N)N` [Example 188, 1-methyl-1-(3-phenylpropyl)guanide hydrochloride] returned an IC50 of over 5 µM.
On the same count and under the same terms, next, `N=C(N)NCCCc1ccccc1` [Example 165, 1-(3-phenylpropyl)guanide hydrochloride]: 2 to 5 µM; `N=C(N)NCCc1ccc(CCc2ccccc2)cc1` [Example 187, 1-(4-phenethylphenethyl)guanide hydrochloride]: over 5 µM.
As to `Cc1ccc(CCNC(=N)NC(=N)N)cc1` [Example 10, N-1-(4-methyl)phenethylbiguanide hydrochloride], the IC50 is over 5 µM.
Still for that read-out and setting: next, `Cc1ccc(CNC(=N)N)cc1` [Example 151, 1-(4-methylbenzyl)guanide hydrochloride]: over 5 µM; `N=C(N)NC(=N)NCCC1CCCCC1` [Example 32, N-1-2-cyclohexylethylbiguanide hydrochloride]: over 5 µM; `N=C(N)NCc1ccc(-c2ccccc2)cc1` [Example 200, N-(4-phenyl)benzyl guanide hydrochloride]: 2 to 5 µM.
Still for that read-out and setting: for `Cc1ccc(CCNC(=N)N)c(C)c1` [Example 155, 1-(2,4-dimethylphenethyl)guanide hydrochloride] the value was under 2 µM; for `N=C(N)NC1Cc2ccccc2C1` [Example 137, 1-(2,3-dihydro-1H-inden-2-yl)guanide hydrochloride], 2 to 5 µM.
Compound `N=C(N)NCCc1cccc(F)c1` [Example 178, 1-(3-fluorophenethyl)guanide hydrochloride] had an IC50 of over 5 µM.
The same measure, in the same setting: next, `Cc1ccc(CCNC(=N)NC(=N)N)c(C)c1` [Example 16, N-1-(2,4-dimethyl)phenethylbiguanide hydrochloride]: 2 to 5 µM.
In turn, `Cc1ccc(CNC(=N)NC(=N)N)cc1C` [Example 28, N-1-(3,4-dimethyl)benzylbiguanide hydrochloride] had an IC50 of 2 to 5 µM.
On the same count and under the same terms, for `N=C(N)NCCC1CC1` [Example 190, 1-(2-cyclopropylethyl)guanide hydrochloride] the value was 2 to 5 µM; for `Cc1cc(CCNC(=N)N)ccc1Cl` [Example 206, 1-(4-chloro-3-methylphenthyl)guanide hydrochloride], under 2 µM; for `Cc1cc(CNC(=N)N)ccc1Br` [Example 207, 1-(4-bromo-3-methylbenzyl) guanide hydrochloride], over 5 µM.
Same read-out and setting: next, `N=C(N)NCc1ccc2ccccc2c1` [Example 198, 11-(naphthalen-2-ylmethyl)guanide hydrochloride]: 2 to 5 µM; `CC(C)c1ccc(CCNC(=N)NC(=N)N)cc1` [Example 14, N-1-(4-isopropyl)phenethylbiguanide hydrochloride]: over 5 µM.

Usually IC50 stands for the midpoint of a concentration-inhibition curve.
